Measurements reported in PMC12720774, “Detergents alter the stability and lipid binding properties of the CD1d immunoreceptor” (Protein Science : A Publication of the Protein Society, 2025).
“And” between values parts separate entries of the source, which are not always exact repeats. Equal values may be shown once.

Experiments:
[1] = target: T1, CSP 319‐328/HLA‐B*08:01/hβ2M complex (Homo sapiens, UniProt P01889, A93T/A95T/D138N/E176V/E187T/K202T/Q94N/R180D/S35A/V36M/Y33D/Y91F); test: ITF with peptide/HLA complex; assay type: binding; settings: for ITF change in Trp fluorescence (F-F0/F0): replicates
T1 construct: made in house
Description: To determine whether detergent effects were specific to hCD1d, we performed analogous ITF, MST, and nanoDSF experiments with a peptide/HLA complex. HLA‐B*08:01, presenting the Plasmodium falciparum derived peptide […] ([…]), was selected as a representative model system since the peptide antigen contains hydrophilic solvent‐exposed residues in the antigen‐binding groove (Frooman et al., [2025]). Although structurally similar to that of hCD1d, HLA‐B*08:01 shares low sequence identity (Figure S10a). […] By nanoDSF, ODG caused minimal destabilization of either complex (ΔT m≈−0.2 to −0.8°C; Figure S10f). […] We posit that lipid‐specific unloading effects of detergent are due to either hydrophobic residues in the antigen binding groove (detergent‐CD1d interactions) and/or the hydrophobic nature of the lipid antigen (detergent‐lipid interactions).
For comparison with peptide/HLA molecules, we prepared recombinant CSP 319‐328/HLA‐B*08:01/hβ2M complex using in vitro refolding methods fully described previously (Frooman et al., [2025]). The peptide sequence for CSP 319–328 is […]. This peptide was chosen since it contains Lys, Gln, and Asp residues predicted to be solvent‐exposed in the HLA‐B*08:01 binding groove (Frooman et al., [2025]).
ITF experiments with peptide/HLA molecules and detergents were performed using an analogous protocol.

hCD1d = hCD1d (Homo sapiens, UniProt P15813+P61769); test: Detergent competition with 18:1 LPC binding to hCD1d (ITF, MST, nanoDSF); parameters: TEV protease cleavage site ENLYFQS (C); BirA biotinylation site (C); His7 (C); made in house; host or cells: TurboCHO cells (GenScript); settings: 0.05% detergent
Experimental: We selected 18:1 LPC for the competition experiments since, first, a structure with hCD1d has been well characterized, and second, it binds hCD1d with moderate micromolar affinity, which is representative of many endogenous lipid antigens (Cantu et al., [2003]; López‐Sagaseta et al., [2012]). In the absence of detergent, 18:1 LPC produced concentration‐dependent changes in ITF and MST signal and decreased the melting temperature of hCD1d (ΔT m = −8.1 ± 1.7°C), indicative of specific binding and hCD1d destabilization (Figure 7c–e).
ITF spectra were recorded from 300 to 500 nm using a Horiba FL3‐21 Fluorometer with the excitation wavelength of 285 nm and excitation/emission slits of 6.2 nm. Fluorescence spectra of 50 to 100 nM hCD1d were acquired in the absence and presence of detergents in 1X PBS pH 7.4 at 25°C. Prior to data acquisition, hCD1d and detergent or lipid samples were incubated at 37°C overnight (~12 h) to simulate in vitro and in vivo loading conditions. […] For 18:1 LPC experiments, fluorescence spectra of 100 nM hCD1d were acquired in the absence and presence of 18:1 LPC in 1X PBS pH 7.4 at 25°C. […] For all ITF experiments, the change in fluorescence signal (F − F 0/F 0) was determined at 335 nm. Three replicates were performed, and data are presented as the mean ± standard deviation (n = 3). K D values were fitted with non‐linear regression in GraphPad Prism v10.1. […]

Chain of hCD1d (P61769+P15813 fused): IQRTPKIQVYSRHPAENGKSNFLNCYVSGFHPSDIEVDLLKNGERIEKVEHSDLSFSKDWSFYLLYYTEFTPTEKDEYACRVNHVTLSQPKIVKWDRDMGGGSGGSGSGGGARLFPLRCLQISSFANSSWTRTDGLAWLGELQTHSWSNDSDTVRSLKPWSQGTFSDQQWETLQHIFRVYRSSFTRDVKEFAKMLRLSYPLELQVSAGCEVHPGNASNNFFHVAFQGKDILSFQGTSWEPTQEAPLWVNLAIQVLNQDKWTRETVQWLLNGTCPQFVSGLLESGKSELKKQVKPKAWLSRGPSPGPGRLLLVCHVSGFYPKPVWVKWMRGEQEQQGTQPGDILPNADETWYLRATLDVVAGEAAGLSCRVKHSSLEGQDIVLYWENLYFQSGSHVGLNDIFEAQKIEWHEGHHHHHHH

CCCCCCCCO[C@@H]1O[C@H](CO)[C@@H](O)[C@H](O)[C@H]1O [ODG, n‐octyl‐β‐D‐glucopyranoside]
ITF fluorescence change with peptide/HLA (in words) [1]: minimal concentration‐dependent fluorescence changes
ITF change in Trp fluorescence (F-F0/F0) ([1]; peptide/HLA with ODG, concentration 1.53e-6 (unit not given)): 0
ITF change in Trp fluorescence (F-F0/F0) ([1]; peptide/HLA with ODG, concentration 3.05e-6 (unit not given)): 0.00207 and -0.125 and -0.0308
ITF change in Trp fluorescence (F-F0/F0) ([1]; peptide/HLA with ODG, concentration 6.1e-6 (unit not given)): 0.0103 and -0.142 and -0.0188
ITF change in Trp fluorescence (F-F0/F0) ([1]; peptide/HLA with ODG, concentration 1.22e-5 (unit not given)): 0.0112 and -0.132 and -0.0414
ITF change in Trp fluorescence (F-F0/F0) ([1]; peptide/HLA with ODG, concentration 2.44e-5 (unit not given)): 0.0406 and -0.126 and -0.0165
ITF change in Trp fluorescence (F-F0/F0) ([1]; peptide/HLA with ODG, concentration 4.88e-5 (unit not given)): -0.113 and -0.0115 and 0.0922
ITF change in Trp fluorescence (F-F0/F0) ([1]; peptide/HLA with ODG, concentration 9.77e-5 (unit not given)): -0.121 and -0.135 and 0.0848
ITF change in Trp fluorescence (F-F0/F0) ([1]; peptide/HLA with ODG, concentration 0.000195 (unit not given)): 0.0173 and -0.126 and -0.052
ITF change in Trp fluorescence (F-F0/F0) ([1]; peptide/HLA with ODG, concentration 0.000391 (unit not given)): 0.0313 and -0.107 and -0.0351
ITF change in Trp fluorescence (F-F0/F0) ([1]; peptide/HLA with ODG, concentration 0.000781 (unit not given)): -0.0702 and -0.0972 and -0.0274
ITF change in Trp fluorescence (F-F0/F0) ([1]; peptide/HLA with ODG, concentration 0.00156 (unit not given)): -0.063 and -0.0903 and -0.0215
ITF change in Trp fluorescence (F-F0/F0) ([1]; peptide/HLA with ODG, concentration 0.00313 (unit not given)): 0.0779 and 0.0569 and 0.00937
ITF change in Trp fluorescence (F-F0/F0) ([1]; peptide/HLA with ODG, concentration 0.00625 (unit not given)): 0.0158 and 0.129 and 0.219
ITF change in Trp fluorescence (F-F0/F0) ([1]; peptide/HLA with ODG, concentration 0.0125 (unit not given)): 0.00491 and 0.00219 and 0.25
ITF change in Trp fluorescence (F-F0/F0) ([1]; peptide/HLA with ODG, concentration 0.025 (unit not given)): 0.118 and 0.242 and 0.374

Tween 20
Kd ([1]; 100 nM peptide/HLA, 25°C, read-out: K D (ITF), peptide/HLA): 7.7 ± 0.8 µM
ITF change in Trp fluorescence (F-F0/F0) ([1]; peptide/HLA with Tween 20, concentration 3.05e-8 (unit not given)): 0
ITF change in Trp fluorescence (F-F0/F0) ([1]; peptide/HLA with Tween 20, concentration 6.1e-8 (unit not given)): -0.0537 and 0.114 and 0.0797
ITF change in Trp fluorescence (F-F0/F0) ([1]; peptide/HLA with Tween 20, concentration 1.22e-7 (unit not given)): 0.119 and -0.000172 and -0.0554
ITF change in Trp fluorescence (F-F0/F0) ([1]; peptide/HLA with Tween 20, concentration 2.44e-7 (unit not given)): -0.00869 and 0.126 and 0.0688
ITF change in Trp fluorescence (F-F0/F0) ([1]; peptide/HLA with Tween 20, concentration 4.88e-7 (unit not given)): 0.121 and 0.101 and 0.0628
ITF change in Trp fluorescence (F-F0/F0) ([1]; peptide/HLA with Tween 20, concentration 9.77e-7 (unit not given)): 0.12 and -0.0283 and -0.0494
ITF change in Trp fluorescence (F-F0/F0) ([1]; peptide/HLA with Tween 20, concentration 1.95e-6 (unit not given)): 0.159 and 0.0122 and -0.04
ITF change in Trp fluorescence (F-F0/F0) ([1]; peptide/HLA with Tween 20, concentration 3.91e-6 (unit not given)): 0.0962 and 0.218 and 0.169
ITF change in Trp fluorescence (F-F0/F0) ([1]; peptide/HLA with Tween 20, concentration 7.81e-6 (unit not given)): 0.176 and 0.206 and 0.0921
ITF change in Trp fluorescence (F-F0/F0) ([1]; peptide/HLA with Tween 20, concentration 1.56e-5 (unit not given)): 0.336 and 0.182 and 0.11
ITF change in Trp fluorescence (F-F0/F0) ([1]; peptide/HLA with Tween 20, concentration 3.13e-5 (unit not given)): 0.356 and 0.339 and 0.0994
ITF change in Trp fluorescence (F-F0/F0) ([1]; peptide/HLA with Tween 20, concentration 6.25e-5 (unit not given)): 0.189 and 0.365 and 0.248
ITF change in Trp fluorescence (F-F0/F0) ([1]; peptide/HLA with Tween 20, concentration 0.000125 (unit not given)): 0.38 and 0.23 and 0.139
ITF change in Trp fluorescence (F-F0/F0) ([1]; peptide/HLA with Tween 20, concentration 0.00025 (unit not given)): 0.261 and 0.271 and 0.181
effect of detergent on 18:1 LPC binding to hCD1d (in words) (hCD1d): abolished nearly all detectable binding signals

C[C@H](CCC(=O)NCCC[N+](C)(C)CCCS(=O)(=O)[O-])[C@H]1CC[C@H]2[C@@H]3[C@H](O)C[C@@H]4C[C@H](O)CC[C@]4(C)[C@H]3C[C@H](O)[C@]12C [CHAPS, 3‐((3‐cholamidopropyl) dimethylammonio)‐1‐propanesulfonate]
effect of detergent on 18:1 LPC binding to hCD1d (in words) (hCD1d): did not robustly outcompete binding
